# Laboratory results taken from PMC9299485, “4‐Iodopyrimidine Labeling Reveals Nuclear Translocation and Nuclease Activity for Both MIF and MIF2” (Chemistry (Weinheim an Der Bergstrasse, Germany), 2021).
# Where two headings read alike, the source gives them in different places.
# What was measured:
# Assay type in all cases: biochemical
# MIF [1] = target: T1, MIF (Homo sapiens, UniProt P14174); assay: MIF tautomerase activity inhibition (4-HPP substrate, UV 306 nm)
# T1 construct: His tag (C); made in house; host or cells: Escherichia coli BL21 (DE3), pET-20b(+)
# T1 sequence (P14174 2-115 limits assumed): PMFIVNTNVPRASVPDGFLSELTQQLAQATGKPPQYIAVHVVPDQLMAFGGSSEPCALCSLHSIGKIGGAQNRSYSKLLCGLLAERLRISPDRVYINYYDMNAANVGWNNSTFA
# Description: 2. Preparation of recombinant MIF and MIF2.
# The detailed procedure to produce C-terminal His-tagged recombinant human MIF was reported in our previous publications.[1,4,5] rhMIF was expressed through transforming a pET-20b(+) plasmid containing the target gene into Escherichia coli BL21 (DE3) according to literature procedures.[6] Overexpression was performed and cells were collected and sonicated.
# The obtained supernatant was applied to a medium pressure chromatography system (Biologic Duoflow) equipped with a His trap HP (5 mL) column with detection at 280 nm for the eluent.
# The column was washed with a binding buffer containing 50 mM Tris and 10% glycerol at pH 7.4 and eluted with elution buffer containing 500 mM imidazole, 50 mM Tris, 10% glycerol at pH 7.4. The pure fractions (as judged by SDS-PAGE) were pooled and subjected to a PD-10 column (GE healthcare) that was equilibrated with PBS buffer at pH 7.4 to remove the high concentration of imidazole. The collected MIF solution was divided into 50 µL aliquots and stored at –80 °C. Purity of obtained protein was tested by SDS-PAGE and Coomassie staining.
# The concentration of protein was determined using the Bradford assay.
# (§1) The detailed procedure to produce recombinant human MIF2 was reported in our previous publications.[7] Gene sequences of the human MIF2 gene (Invitrogen) was adapted to bacterial expression. After subcloning into a pET20b(+) expression vector, IPTG-induced expression was performed in E.coli strain BL21(DE3). MIF2 proteins were overproduced overnight and harvested cells were resuspended and sonicated. The soluble fraction was puriﬁed using a Q sepharose column (GE Healthcare) with a gradient of NaCl. The fractions containing MIF2 were brought to 1.7 M ammonium sulfate and loaded on a phenyl sepharose column (GE Healthcare) and eluted with a gradient to 0 M ammonium sulfate in a 20 mM sodium phosphate buffer, pH 8.0. Finally, the proteins were purified by size exclusion chromatography on a Superdex75 column (GE Healthcare) in 20 mM sodium phosphate buffer, pH 8.0, with an elution volume characteristic for trimeric MIF2. The collected protein was concentrated using a VivaSpin centrifugation column with a molecular weight cut off at 5000 D a (Sartorius Stedim Biotech GmbH). Purified proteins were aliquoted, snap frozen in liquid nitrogen, and stored at –80 °C. Purity of obtained protein was tested by SDS-PAGE and coomassie staining. The concentration of protein was determined using the Bradford a ssay.
# (§2) 3.1 MIF and MIF2 Inhibition
# (§3) The protocol for measuring inhibition of MIF or MIF2 tautomerase enzyme activity was described previously.[5] 500 nM MIF solution (180 µL) or 100 nM MIF2 solution (180 µL) in boric acid buffer ([…], pH 6.2) was mixed with 20 mM EDTA solution (10 µL) in demineralized water. A solution of the desired compound dissolved in DMSO (10 µL) or blank DMSO (10 µL) was added. The resulting mixture was preincubated at room temperature for 10 minutes.
# (§4) Subsequently, 50 µL of this mixture was mixed with 50 µL of a 1 mM 4-HPP solution for MIF or 1 mM PP solution for MIF2 in ammonium acetate buffer (50 mM, pH 6.0). Thereafter, MIF or MIF2 tautomerase activity was monitored by measuring the increase of UV absorbance at 306 nm for MIF or 300 nm for MIF2 over time. The MIF or MIF2 tautomerase activity of the mixture with blank DMSO dilution was set to 100% enzyme activity. Noncatalyzed conversion of the substrate in the mixture without MIF or MIF2 was set to 0%. The data acquired from the first 3 minutes of the measurement were used to calculate the initial conversion speed. All experiments were performed in triplicate and data processing was done using the program […]
# (§5) Table S1. IC50 values (10 min) and inactivation parameters of synthesized compounds.
# (§6) (1 picture or pasted object on this page, not shown here)
# MIF2 [2] = target: T2, MIF2 (Homo sapiens, UniProt P30046); assay: MIF2 tautomerase activity inhibition (PP substrate, UV 300 nm)
# T2 construct: made in house; host or cells: E. coli BL21(DE3), pET20b(+)
# T2 sequence (P30046 2-118 limits assumed): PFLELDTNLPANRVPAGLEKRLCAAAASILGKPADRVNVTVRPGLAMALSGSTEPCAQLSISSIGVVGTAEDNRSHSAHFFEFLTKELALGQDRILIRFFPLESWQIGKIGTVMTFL
# Description: 2. Preparation of recombinant MIF and MIF2. […]
# Purity of obtained protein was tested by SDS-PAGE and Coomassie staining. […]
# as §1, §2, §3, §4, §5, §6
# MIF [3] = target: T1, MIF; assay: Kitz-Wilson inactivation kinetics on MIF tautomerase
# Description: (§7) In order to derive the kinetic parameters for inactivation of MIFand MIF2, we employed the approach described by Kitz and Wilson. Briefly, four different concentrations of the inhibitor with four different pre-incubation times were selected. The assay conditions are described above with the difference in incubation time.
# (§8) For the data analysis, the pre-incubation times for the different concentration of the inhibitor versus the remaining enzyme activity were plotted, so from the linear regression the slope of each concentration of the probe was obtained ( Table S3). Then the 1/slope versus 1/[inhibitor] were plotted (Figure 4) and from the linear regression line ki was derived from the 1/y -intercept and derived from the slope times the ki as described by Kitz and Wilson.
# For example, for the probe 8 the equation is: Y = 7,476*X + 5,069
# So, the kinact and the KI values are: kinact =1/5,069 =0.20 min-1
# (also on this page, place not known: -1 0 1 2 3 0 50 100 log [FM011] (µM) DDT (%) -1 0 1 2 3 0 50 100 log [ZP308] (µM) DDT activity (%) 0.0 0.5 1.0 1.5 2.0 0 50 100 log [ZP307] (µM) DDT activity (%) 1.4 1.6 1.8 2.0 2.2 0 50 100 log [FM031] (µM) DDT activity (%) pre -incubation cond itions pre -incubation activity o f (Table 1/y-intercept) […]
# (§9) Table S4. Kinetics studies results.
# (§10) Time-dependent inhibition Kitz and Wilson curve […]
# ln (MIF tautomerase activity %)
# Time-dependent inhibition on MIF Y = 7,476*X + 5,069
# Time-dependent inhibition on MIF Y = 12,07*X + 4,234 […]
# ln (MIF2 tautomerase activity %)
# (§11) Time-dependent inhibition on MIF2 Y = 299,5*X + 11,14 […]
# MIF2 [4] = target: T2, MIF2; assay: Kitz-Wilson inactivation kinetics on MIF2 tautomerase; settings: Kitz-Wilson analysis, ±SD, n=3
# Description: as §7, §8
# For example, for the probe 8 the equation is: Y = 7,476*X + 5,069 […]
# as §9, §10
# ln (MIF tautomerase activity %) […]
# as §11
# MIF [5] = target: T1, MIF; assay: hgDNA cleavage by MIF in presence of tautomerase inhibitors; settings: Figure S3/S7
# Description: (§12) 7. Nuclease activity of MIF and MIF2.
# (§13) Human genomic DNA was obtained from RPE-1 cells by DNA extraction following the protocol described in literature.[10] The nuclease assays were conducted by following the procedure described previously.[8] hgDNA (200 ng/reaction) was incubated with MIF or MIF2 in final concentration of 0.62 -20 µM as indicated in 10Mm Tris-HCl buffer (pH 7.0) containing 10mM MgCl2 (B and C) or specific buffer as indicated at 37°C for two hours. The reaction was terminated with loading buffer containing 10mM EDTA and incubation on ice. The human genomic DNA samples were immediately separated on a 1% agarose gel containing SYBR Safe (ThermoFisher) in 0.5 X TBE buffer with initial switch time of 1.5 s and a final switch time of 3.5 s for 12 hours at 6 V/cm. DNA was further detected by chemiluminescence.
# (§14) Figure S7. hgDNA cleavage activity of MIF and MIF2. (A) The MIF2 nuclease activity is Mg 2+- […]
# (§15) BITC is a covalent inhibitor that can form covalent bond with the N-terminal proline.[11] (C) […]
# as §6
# MIF2 [6] = target: T2, MIF2; assay: hgDNA cleavage by MIF2 in presence of tautomerase inhibitors; settings: Figure S3/S7
# Description: as §12, §13, §14, §15, §6
compound,measurement,setting,value
O=C(NCCNc1ccc([N+](=O)[O-])c2nonc12)c1ccc(-c2cc(I)ncn2)cc1 [Compound 8],IC50,"MIF [1]; Table 2, 10 min pre-incubation, ±SD, n=3, read-out: IC50 MIF",270 ± 85 nM
same,IC50,"MIF [1]; approximate, read-out: IC50 on MIF",~200 nM
same,improvement of potency for MIF2 inhibition compared to parental inhibitor 2,MIF2 [2],2–6 factor
same,IC50,"MIF2 [2]; Table 2, 10 min pre-incubation, ±SD, n=3, read-out: IC50 MIF2",20000 ± 2200 nM
same,KI on MIF relative to IC50,MIF [3]; KI higher than IC50,about 10 times
same,KI (inactivation),"MIF [3]; Kitz-Wilson analysis, ±SD, n=3, read-out: KI MIF (inhibition constant)",1500 ± 200 nM
same,kinact,"MIF [3]; Kitz-Wilson analysis, ±SD, n=3, read-out: kinact MIF (rate of enzyme inactivation) (converted)",0.00333 s⁻¹
same,kinact MIF2 (rate of enzyme inactivation),MIF2 [4],0.088 ± 0.012 min⁻¹
same,KI (inactivation),MIF2 [4]; read-out: KI MIF2 (inhibition constant),26000 ± 3200 nM
same,kinact,MIF2 [4]; read-out: kinact MIF2 (rate of enzyme inactivation),0.001 to 0.0015 s⁻¹
same,effect on DNA cleavage by MIF,MIF [5],could not rescue DNA cleavage
same,effect on DNA cleavage by MIF2,MIF2 [6],could not rescue DNA cleavage
